In ChEMBL document CHEMBL4007427, “Inhibition of the Aldehyde Dehydrogenase 1/2 Family by Psoralen and Coumarin Derivatives” (J Med Chem, 2017):

What was measured:
[1] = target: T1, Aldehyde dehydrogenase, mitochondrial (Homo sapiens) (UniProt P05091); experiment: Inhibition of full length recombinant human ALDH2 expressed in Escherichia coli assessed as remaining dehydrogenase activity by measuring NAD(P)H level at 10 uM preincubated for 2 mins followed by addition of propionaldehyde as substrate in presence of NAD+ by spectrophotometric method
T1 sequence (whole entry): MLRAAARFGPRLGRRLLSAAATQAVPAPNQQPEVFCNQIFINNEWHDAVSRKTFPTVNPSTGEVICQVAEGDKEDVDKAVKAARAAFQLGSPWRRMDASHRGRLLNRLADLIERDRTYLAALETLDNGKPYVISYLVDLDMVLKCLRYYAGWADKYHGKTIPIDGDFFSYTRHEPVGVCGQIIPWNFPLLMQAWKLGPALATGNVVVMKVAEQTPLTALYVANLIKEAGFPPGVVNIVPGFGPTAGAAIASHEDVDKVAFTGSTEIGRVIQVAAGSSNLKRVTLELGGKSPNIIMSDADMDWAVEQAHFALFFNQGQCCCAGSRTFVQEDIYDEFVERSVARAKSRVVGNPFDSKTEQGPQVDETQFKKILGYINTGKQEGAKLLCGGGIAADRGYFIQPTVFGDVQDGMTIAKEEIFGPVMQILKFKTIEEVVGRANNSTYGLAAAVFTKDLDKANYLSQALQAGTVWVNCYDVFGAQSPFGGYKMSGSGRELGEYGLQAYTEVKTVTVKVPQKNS

[2] = target: T2, Aldehyde dehydrogenase 1A1 (Homo sapiens) (UniProt P00352); experiment: Inhibition of full length recombinant human ALDH1A1 expressed in Escherichia coli BL21(DE3) assessed as remaining dehydrogenase activity by measuring NAD(P)H level at 10 uM preincubated for 2 mins followed by addition of propionaldehyde as substrate in presence of NAD+ by spectrophotometric method
T2 sequence (whole entry): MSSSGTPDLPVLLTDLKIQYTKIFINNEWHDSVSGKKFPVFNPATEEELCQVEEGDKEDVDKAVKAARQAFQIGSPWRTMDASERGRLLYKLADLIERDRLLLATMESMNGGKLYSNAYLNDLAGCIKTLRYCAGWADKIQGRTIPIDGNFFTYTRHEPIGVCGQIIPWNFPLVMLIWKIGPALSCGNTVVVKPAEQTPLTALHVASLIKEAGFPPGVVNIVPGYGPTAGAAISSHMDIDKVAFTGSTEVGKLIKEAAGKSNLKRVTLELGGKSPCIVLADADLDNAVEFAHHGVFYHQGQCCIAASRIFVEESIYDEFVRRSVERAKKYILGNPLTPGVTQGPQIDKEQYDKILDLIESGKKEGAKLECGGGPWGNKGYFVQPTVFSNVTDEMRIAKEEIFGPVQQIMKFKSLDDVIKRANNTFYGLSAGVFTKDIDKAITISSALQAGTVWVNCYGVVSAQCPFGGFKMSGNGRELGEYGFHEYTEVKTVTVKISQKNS

[3] = target: T3, Aldehyde dehydrogenase, mitochondrial (Homo sapiens, UniProt P05091)
T3 sequence (P05091 whole entry): T1 sequence (whole entry)
Description: Inhibition of full length recombinant human ALDH2 expressed in Escherichia coli assessed as reduction in dehydrogenase activity by measuring NAD(P)H level preincubated for 2 mins followed by addition of propionaldehyde as substrate in presence of NAD+ by spectrophotometric method

[4] = target: T4, Aldehyde dehydrogenase, dimeric NADP-preferring (Homo sapiens, UniProt P30838); experiment: Inhibition of full length recombinant human ALDH3A1 expressed in Escherichia coli BL21(DE3) assessed as reduction in dehydrogenase activity by measuring NAD(P)H level preincubated for 2 mins followed by addition of benzaldehyde as substrate in presence of NADP+ by spectrophotometric method
T4 sequence (P30838 whole entry): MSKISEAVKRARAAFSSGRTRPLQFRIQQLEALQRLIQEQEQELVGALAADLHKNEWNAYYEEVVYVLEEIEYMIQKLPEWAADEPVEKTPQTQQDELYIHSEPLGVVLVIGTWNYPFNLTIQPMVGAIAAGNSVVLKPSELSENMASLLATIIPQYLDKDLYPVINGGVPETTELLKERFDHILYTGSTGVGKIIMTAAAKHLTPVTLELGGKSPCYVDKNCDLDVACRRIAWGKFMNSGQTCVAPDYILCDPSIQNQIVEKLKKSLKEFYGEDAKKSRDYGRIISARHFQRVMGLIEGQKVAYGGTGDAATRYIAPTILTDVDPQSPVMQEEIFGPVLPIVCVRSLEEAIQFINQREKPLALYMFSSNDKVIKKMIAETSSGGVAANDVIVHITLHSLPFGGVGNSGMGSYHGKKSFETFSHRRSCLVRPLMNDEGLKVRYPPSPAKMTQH

[5] = Lipophilicity, log P of the compound; type: physicochemical; settings: octanol/water
Retinal dehydrogenase 2 = target: T5, Retinal dehydrogenase 2 (Homo sapiens, UniProt O94788)
T5 sequence (O94788 whole entry): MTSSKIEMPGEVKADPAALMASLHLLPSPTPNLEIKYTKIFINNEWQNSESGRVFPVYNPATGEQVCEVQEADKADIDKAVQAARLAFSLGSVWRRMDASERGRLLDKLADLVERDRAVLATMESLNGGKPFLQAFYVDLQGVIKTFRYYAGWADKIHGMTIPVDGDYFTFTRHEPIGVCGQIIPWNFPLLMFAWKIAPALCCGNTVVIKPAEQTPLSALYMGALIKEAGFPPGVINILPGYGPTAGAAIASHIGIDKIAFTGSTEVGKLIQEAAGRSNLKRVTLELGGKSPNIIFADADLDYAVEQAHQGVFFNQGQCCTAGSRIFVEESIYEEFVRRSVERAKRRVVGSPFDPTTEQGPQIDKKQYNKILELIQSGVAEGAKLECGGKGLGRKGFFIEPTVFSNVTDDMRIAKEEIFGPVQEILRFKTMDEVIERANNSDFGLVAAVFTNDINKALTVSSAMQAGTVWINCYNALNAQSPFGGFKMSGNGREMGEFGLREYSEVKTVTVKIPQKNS
Description: Inhibition of full length recombinant human ALDH1A2 expressed in Escherichia coli BL21(DE3) assessed as reduction in dehydrogenase activity by measuring NAD(P)H level preincubated for 2 mins followed by addition of propionaldehyde as substrate in presence of NAD+ by spectrophotometric method

[6] = target: T6, Aldehyde dehydrogenase X, mitochondrial (Homo sapiens, UniProt P30837)
T6 sequence (P30837 whole entry): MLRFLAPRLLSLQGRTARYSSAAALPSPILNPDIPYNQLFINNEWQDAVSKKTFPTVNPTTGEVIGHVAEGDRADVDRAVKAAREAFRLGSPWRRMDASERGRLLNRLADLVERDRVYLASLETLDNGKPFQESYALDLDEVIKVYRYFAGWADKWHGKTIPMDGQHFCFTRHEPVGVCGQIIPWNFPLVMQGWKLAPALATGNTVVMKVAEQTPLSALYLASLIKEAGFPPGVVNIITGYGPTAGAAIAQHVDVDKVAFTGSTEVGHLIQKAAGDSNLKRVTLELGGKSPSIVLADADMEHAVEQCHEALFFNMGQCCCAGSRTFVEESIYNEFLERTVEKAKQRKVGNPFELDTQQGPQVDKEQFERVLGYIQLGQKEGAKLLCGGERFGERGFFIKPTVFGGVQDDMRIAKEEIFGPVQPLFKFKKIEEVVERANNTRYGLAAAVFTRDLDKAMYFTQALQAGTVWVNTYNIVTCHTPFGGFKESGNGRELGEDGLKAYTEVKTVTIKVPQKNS
Description: Inhibition of full length recombinant human ALDH1B1 expressed in Escherichia coli TunerDE3 assessed as reduction in dehydrogenase activity by measuring NAD(P)H level preincubated for 2 mins followed by addition of propionaldehyde as substrate in presence of NAD+ by spectrophotometric method

SMILES	Activity [1]	Activity [2]	IC50 [3]	IC50 [4]	logP [5]	IC50 (Retinal dehydrogenase 2)	IC50 [6]
COC(=O)C(C)Oc1ccc2c(C)cc(=O)oc2c1 (stereo unspecified)	5.72%	84.8%	1500 nM	Not Active	1.9		
Cc1oc2cc3oc(=O)c(CCC(=O)N4CCCCC4)c(C)c3cc2c1C	3.8%	8.69%	2000 nM	Not Active	4.06	1600 nM	2600 nM
C/C(=N\O)c1cc2cc(Br)ccc2oc1=O	48.2%	96%	4600 nM	Not Active	2.1		
CCCc1c(C)c2cc3c(C)c(C)oc3cc2oc1=O	1.61%	36.3%	110 nM	Not Active	4.92	300 nM	360 nM
CCCc1c(C)c2cc3c(C)coc3cc2oc1=O	6.25%	48.6%	340 nM	Not Active	4.47	760 nM	880 nM
Cc1oc2cc3oc(=O)c4c(c3cc2c1C)CCC4	8.25%	50.8%	67 nM	Not Active	4.26	130 nM	160 nM
CCCc1cc(=O)oc2cc3oc(C)c(C)c3cc12	23.8%	74.1%	360 nM	Not Active	4.47	69 nM	86 nM
Cc1oc2cc3oc(=O)c(C)c(C)c3cc2c1C	19.5%	90.5%		Not Active	4.39	330 nM	310 nM
